Assay results reported in US10316017B2, “COT modulators and methods of use thereof” (Gilead Sciences, Inc., priority 2015, dated 2019).

Legend:
[1] = target: T1, human Cot catalytic domain (30-397 amino acids) (Homo sapiens, UniProt P41279); test: High Throughput Cot Biochemical Assay (KinEASE TR-FRET); conditions: Cot biochemical HTRF (KinEASE TR-FRET) assay; read-out: IC50 HTRF
T1 construct: Purified recombinant human Cot catalytic domain (30-397 amino acids) was purchased from Cama Biosciences; purchased Cama Biosciences (so in the source)
Procedure, shortened: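 TR-FRET (KinEASE) read-out: Eu-labelled phospho-specific antibody binds XL665-tagged STK3 peptide (1 μM) phosphorylated by 5 nM human Cot kinase domain (residues 30-397). Reaction at 400 μM ATP, pH 7.0 MOPS buffer with 10 mM MgOAc, 1 mM DTT and 0.1% DMSO.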

[2] = system: TNFα production in LPS-stimulated human monocytes; test: Cot Monocyte TNFα Cell Based Assay; conditions: Homo sapiens, Monocyte, TNFα in LPS-stimulated human monocytes; read-out: EC50 TNF
Procedure, shortened: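 TNFα release quantified by two-antibody TR-FRET, normalised to unstimulated (0%) and LPS-stimulated (100%) wells. Cells got a 1 h compound exposure at 37° C in 0.5% DMSO before 4 h challenge with 50 pg/ml LPS, at 5,000 cells/well.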

T1 sequence (P41279 30-397): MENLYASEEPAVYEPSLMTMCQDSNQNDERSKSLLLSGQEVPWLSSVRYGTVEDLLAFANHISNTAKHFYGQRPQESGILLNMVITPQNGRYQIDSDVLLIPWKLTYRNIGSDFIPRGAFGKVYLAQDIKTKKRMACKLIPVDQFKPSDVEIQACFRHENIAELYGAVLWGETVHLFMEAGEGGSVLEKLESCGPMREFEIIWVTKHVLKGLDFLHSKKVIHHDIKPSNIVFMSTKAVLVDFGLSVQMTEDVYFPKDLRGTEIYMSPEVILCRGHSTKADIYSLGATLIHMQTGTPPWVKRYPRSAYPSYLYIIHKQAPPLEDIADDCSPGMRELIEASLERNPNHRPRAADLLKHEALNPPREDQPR

Row | SMILES | IC50 [1] [nM] | EC50 [2] [nM]
1 | CC(C)n1cc([C@@H](Nc2cc(Cl)c3ncc(C#N)c(Nc4cnc(F)c(F)c4)c3c2)c2ccc(F)cc2)nn1 [Example 458, (S)-8-chloro-4-((5,6-difluoropyridin-3-yl)amino)-6-(((4-fluorophenyl)(1-isopropyl-1H-1,2,3-triazol-4-yl)methyl)amino)quinoline-3-carbonitrile] | 17 | 598
2 | N#Cc1cnc2c(Cl)cc(N[C@@H](c3ccc(F)cc3)c3cn(CCCN4CCCC4)nn3)cc2c1Nc1cnc(F)c(F)c1 [Example 459] | 9 | 454
3 | N#Cc1cnc2c(Cl)cc(N[C@H](c3c[nH]nn3)c3ccc(F)cc3F)cc2c1Nc1cnc(F)c(F)c1 [Example 460, (S)-8-chloro-6-(((2,4-difluorophenyl)(1H-1,2,3-triazol-4-yl)methyl)amino)-4-((5,6-difluoropyridin-3-yl)amino)quinoline-3-carbonitrile] | 23 | 1260
4 | [2H][C@](Nc1cc(Cl)c2ncc(C#N)c(Nc3cnc(F)c(F)c3)c2c1)(c1ccccc1)c1c[nH]nn1 [Example 461, (S)-8-chloro-4-((5,6-difluoropyridin-3-yl)amino)-6-((phenyl(1H-1,2,3-triazol-4-yl)methyl-d)amino)quinoline-3-carbonitrile] | 20 | 1530
5 | CS(=O)(=O)c1cccc([C@H](Nc2cc(Cl)c3ncc(C#N)c(Nc4ccc(Cl)c(Cl)c4F)c3c2)c2c[nH]nn2)c1 [Example 462, (S)-8-chloro-4-((3,4-dichloro-2-fluorophenyl)amino)-6-(((3-(methylsulfonyl)phenyl) (1H-1,2,3-triazol-4-yl)methyl)amino)quinoline-3-carbonitrile] | 17 | 787
6 | [2H][C@](Nc1cc(Cl)c2ncc(C#N)c(Nc3ccc(Cl)c(Cl)c3F)c2c1)(c1ccccc1)c1c[nH]nn1 [Example 463, (S)-8-chloro-4-((3,4-dichloro-2-fluorophenyl)amino)-6-((phenyl(1H-1,2,3-triazol-4-yl)methyl-d)amino)quinoline-3-carbonitrile] | 144 | 1410
7 | N#Cc1ccc([C@H](Nc2cc(Cl)c3ncc(C#N)c(Nc4ccc(Cl)c(Cl)c4F)c3c2)c2c[nH]nn2)cc1 [Example 464, (S)-8-chloro-6-(((4-cyanophenyl)(1H-1,2,3-triazol-4-yl)methyl)amino)-4-((3,4-dichloro-2-fluorophenyl)amino) quinoline-3-carbonitrile] | 61 | 694
8 | N#Cc1cccc([C@H](Nc2cc(Cl)c3ncc(C#N)c(Nc4ccc(Cl)c(Cl)c4F)c3c2)c2c[nH]nn2)c1 [Example 465, (S)-8-chloro-6-(((3-cyanophenyl)(1H-1,2,3-triazol-4-yl)methyl)amino)-4-((3,4-dichloro-2-fluorophenyl)amino) quinoline-3-carbonitrile] | 41 | 821
9 | N#Cc1cccc([C@H](Nc2cc(Cl)c3ncc(C#N)c(Nc4ccc(Cl)c(Cl)c4F)c3c2)c2cn(C3COC3)nn2)c1 [Example 466, (S)-8-chloro-6-(((3-cyanophenyl)(1-(oxetan-3-yl)-1H-1,2,3-triazol-4-yl)methyl)amino)-4-((3,4-dichloro-2-fluorophenyl)amino) quinoline-3-carbonitrile] | 53 | 1400
10 | N#Cc1cnc2c(Cl)cc(N[C@H](c3cn(C4COC4)nn3)c3ccc(F)cc3F)cc2c1Nc1cnc(F)c(F)c1 [Example 467, (S)-8-chloro-6-(((2,4-difluorophenyl)(1-(oxetan-3-yl)-1H-1,2,3-triazol-4-yl)methyl)amino)-4-((5,6-difluoropyridin-3-yl)amino)quinoline-3-carbonitrile] | 13 | 978
11 | N#Cc1cnc2c(Cl)cc(N[C@@H](c3ccccc3)c3cn(CCCN4CCCC4)nn3)cc2c1Nc1ccc(F)c(C#N)c1F [Example 469, (S)-8-chloro-4-((3-cyano-2,4-difluorophenyl)amino)-6-((phenyl(1-(3-(pyrrolidin-1-yl)propyl)-1H-1,2,3-triazol-4-yl)methyl)amino)quinoline-3-carbonitrile] | 14 | 315
12 | N#Cc1cnc2c(Cl)cc(N[C@@H](c3ccccc3)c3cn(CCCN4CCCC4)nn3)cc2c1Nc1c(F)cc(F)cc1F [Example 472, (S)-8-chloro-6-((phenyl(1-(3-(pyrrolidin-1-yl)propyl)-1H-1,2,3-triazol-4-yl)methyl)amino)-4-((2,4,6-trifluorophenyl)amino) quinoline-3-carbonitrile] | 96 | 2360

Next, values leading:

Row | IC50 [1] [nM] | EC50 [2] [nM] | SMILES
13 | 173 | 3150 | COc1ccc(Nc2c(C#N)cnc3c(Cl)cc(N[C@@H](c4ccccc4)c4cn(C(C)(C)C)nn4)cc23)cn1 [Example 468, (S)-6-(((1-(tert-butyl)-1H-1,2,3-triazol-4-yl)(phenyl)methyl)amino)-8-chloro-4-((6-methoxypyridin-3-yl)amino)quinoline-3-carbonitrile]
14 | 13 | 608 | CC(C)(C)N1CCC(n2cc([C@@H](Nc3cc(Cl)c4ncc(C#N)c(Nc5ccc(F)c(C#N)c5F)c4c3)c3ccccc3)nn2)CC1 [Example 470, (S)-6-(((1-(1-(tert-butyl)piperidin-4-yl)-1H-1,2,3-triazol-4-yl)(phenyl)methyl)amino)-8-chloro-4-((3-cyano-2,4-difluorophenyl)amino) quinoline-3-carbonitrile]
15 | 333 | 8640 | CC(C)(C)N1CCC(n2cc([C@@H](Nc3cc(Cl)c4ncc(C#N)c(Nc5ccc(F)cc5C#N)c4c3)c3ccccc3)nn2)CC1 [Example 471, (S)-6-(((1-(1-(tert-butyl)piperidin-4-yl)-1H-1,2,3-triazol-4-yl)(phenyl)methyl)amino)-8-chloro-4-((2-cyano-4-fluorophenyl)amino) quinoline-3-carbonitrile]
16 | 59 | 784 | CC(C)(C)N1CCC(n2cc([C@@H](Nc3cc(Cl)c4ncc(C#N)c(Nc5c(F)cc(F)cc5F)c4c3)c3ccccc3)nn2)CC1 [Example 473, (S)-6-(((1-(1-(tert-butyl)piperidin-4-yl)-1H-1,2,3-triazol-4-yl)(phenyl)methyl)amino)-8-chloro-4-((2,4,6-trifluorophenyl)amino) quinoline-3-carbonitrile]
17 | 68 | 1570 | CC(C)(C)CCNc1c(C#N)cnc2c(Cl)cc(N[C@@H](c3ccccc3)c3cn(C4CCN(C(C)(C)C)CC4)nn3)cc12 [Example 474, (S)-6-(((1-(1-(tert-butyl)piperidin-4-yl)-1H-1,2,3-triazol-4 yl)(phenyl)methyl)amino)-8-chloro-4-((3,3-dimethylbutyl)amino) quinoline-3-carbonitrile]
18 | 459 | > 10000 | Cn1cc(CNc2c(C#N)cnc3c(Cl)cc(N[C@@H](c4ccccc4)c4cn(C5CCN(C(C)(C)C)CC5)nn4)cc23)cn1 [Example 475, (S)-6-(((1-(1-(tert-butyl)piperidin-4-yl)-1H-1,2,3-triazol-4-yl)(phenyl)methyl)amino)-8-chloro-4-(((1-methyl-1H-pyrazol-4-yl)methyl)amino)quinoline-3-carbonitrile]
19 | 1740 | > 10000 | Cn1ccc(CNc2c(C#N)cnc3c(Cl)cc(N[C@@H](c4ccccc4)c4cn(C5CCN(C(C)(C)C)CC5)nn4)cc23)n1 [Example 476, (S)-6-(((1-(1-(tert-butyl)piperidin-4-yl)-1H-1,2,3-triazol-4-yl)(phenyl)methyl)amino)-8-chloro-4-(((1-methyl-1H-pyrazol-3-yl)methyl)amino)quinoline-3-carbonitrile]
20 | 243 | 6650 | Cn1nccc1CNc1c(C#N)cnc2c(Cl)cc(N[C@@H](c3ccccc3)c3cn(C4CCN(C(C)(C)C)CC4)nn3)cc12 [Example 477, (S)-6-(((1-(1-(tert-butyl)piperidin-4-yl)-1H-1,2,3-triazol-4-yl)(phenyl)methyl)amino)-8-chloro-4-(((1-methyl-1H-pyrazol-5-yl)methyl)amino)quinoline-3-carbonitrile]
21 | 1050 | 5530 | Cn1cc(Nc2c(C#N)cnc3c(Cl)cc(N[C@@H](c4ccccc4)c4cn(C5CCN(C(C)(C)C)CC5)nn4)cc23)cn1 [Example 478, (S)-6-(((1-(1-(tert-butyl)piperidin-4-yl)-1H-1,2,3-triazol-4-yl)(phenyl)methyl)amino)-8-chloro-4-((1-methyl-1H-pyrazol-4-yl)amino)quinoline-3-carbonitrile]
22 | 5280 | > 10000 | CC(C)(C)N1CCC(n2cc([C@@H](Nc3cc(Cl)c4ncc(C#N)c(Nc5cccc6[nH]c(=O)[nH]c56)c4c3)c3ccccc3)nn2)CC1 [Example 479, (S)-6-(((1-(1-(tert-butyl)piperidin-4-yl)-1H-1,2,3-triazol-4-yl)(phenyl)methyl)amino)-8-chloro-4-((2-oxo-2,3-dihydro-1H-benzo[d]imidazol-4-yl)amino) quinoline-3-carbonitrile]
23 | 1220 | 8510 | COc1ncccc1Nc1c(C#N)cnc2c(Cl)cc(N[C@@H](c3ccccc3)c3cn(C4CCN(C(C)(C)C)CC4)nn3)cc12 [Example 480, (S)-6-(((1-(1-(tert-butyl)piperidin-4-yl)-1H-1,2,3-triazol-4-yl)(phenyl)methyl)amino)-8-chloro-4-((2-methoxypyridin-3-yl)amino)quinoline-3-carbonitrile]
